# Experimental data from paper PMC8621193, “In Vitro Evaluation of a Solid Supersaturated Self Nanoemulsifying Drug Delivery System (Super-SNEDDS) of Aprepitant for Enhanced Solubility” (Pharmaceuticals, 2021).
# Where two headings read alike, the source gives them in different places.
# Legend:
# [1] = Equilibrium (apparent) solubility of APR, shake flask method; type: physicochemical; details: for solubility at 24 h: thermodynamic from solid
# Protocol: The solubility of APR in various buffers, oils, surfactants, cosurfactants, cosolvents, and formulations was measured using the shake flask method. Briefly, an excess APR was added into a polypropylene tube that contains a medium. Tube mixed by a vortex (Daihan VM-10, South Korea) for 1 min to disperse APR. Mixtures were shaken at 100 rpm for 24 h at various temperatures in a thermostatically controlled shaking water bath (Nüve ST30, Turkey). Mixtures were then centrifuged at 13,500 rpm (12,225× g) for 15 min. The supernatant samples were suitably diluted with the mobile phase. Drug concentration was obtained via the validated HPLC method.
# Saturated SNEDDS were prepared by adding excess APR into blank preconcentrates and then precipitate the insoluble part of APR. Briefly, SNEDDS and excess APR mixtures were shaken at 100 rpm for 24 h at 37 °C in a shaking water bath. Mixtures were then centrifuged at 13,500 rpm (12,225× g) for 15 min. The supernatant was separated carefully to obtain saturated SNEDDS.
# [2] = cited from earlier work
# [3] = cited from earlier work; remark: listed apart in the source
smiles,measurement,setting,value
"C[C@@H](O[C@H]1OCCN(Cc2nc(=O)[nH][nH]2)[C@H]1c1ccc(F)cc1)c1cc(C(F)(F)F)cc(C(F)(F)F)c1 [APR, 5-(((2R,3S)-2-((1R)-1-(3,5-bis(trifluoromethyl)phenyl)ethoxy)-3-(4-fluorophenyl)4-morpholinyl)methyl)-1,2-dihydro-3H-1,2,4-triazol-3-one]",solubility at 24 h,"[1]; 37 °C, organic solvent or mixture, Imwitor 988:Kolliphor RH40:Transcutol P (%) 20:60:20, 37 °C, read-out: APR solubility (loading capacity of SNEDDS preconcentrate)",21600 µg/mL
same,solubility at 24 h,"[1]; 37 °C, organic solvent or mixture, Imwitor 988:Kolliphor RH40:Transcutol P (%) 30:10:60, 37 °C, read-out: APR solubility (loading capacity of SNEDDS preconcentrate)",55300 µg/mL
same,solubility at 24 h,"[1]; Brij O10 (surfactant), 25 °C, aqueous with cosolvent or surfactant or cyclodextrin, surfactant Brij O10, 25 °C, read-out: APR solubility",9870 µg/mL
same,solubility at 24 h,"[1]; Capryol 90 (cosurfactant), 25 °C, organic solvent or mixture, cosurfactant Capryol 90, 25 °C, read-out: APR solubility",17000 µg/mL
same,solubility at 24 h,"[1]; Castor oil (oily excipient), 25 °C, oil or lipid, oily excipient Castor oil, 25 °C, read-out: APR solubility",2920 µg/mL
same,solubility at 24 h,"[1]; Cinnamon oil (oily excipient), 25 °C, oil or lipid, oily excipient Cinnamon oil, 25 °C, read-out: APR solubility",8470 µg/mL
same,solubility at 24 h,"[1]; Eucalyptus oil (oily excipient), 25 °C, oil or lipid, oily excipient Eucalyptus oil, 25 °C, read-out: APR solubility",6840 µg/mL
same,solubility at 24 h,"[1]; Glycerine (cosolvent), 25 °C, organic solvent or mixture, cosolvent Glycerine, 25 °C, read-out: APR solubility",13 µg/mL
same,solubility at 24 h,"[1]; Imwitor 988 (oily excipient), 25 °C, oil or lipid, oily excipient Imwitor 988, 25 °C, read-out: APR solubility",19800 µg/mL
same,solubility at 24 h,"[1]; Kolliphor ELP (surfactant), 25 °C, aqueous with cosolvent or surfactant or cyclodextrin, surfactant Kolliphor ELP, 25 °C, read-out: APR solubility",4230 µg/mL
same,solubility at 24 h,"[1]; Kolliphor HS15 (surfactant), 25 °C, aqueous with cosolvent or surfactant or cyclodextrin, surfactant Kolliphor HS15, 25 °C, read-out: APR solubility",7160 µg/mL
same,solubility at 24 h,"[1]; Kolliphor RH40 (surfactant), 25 °C, aqueous with cosolvent or surfactant or cyclodextrin, surfactant Kolliphor RH40, 25 °C, read-out: APR solubility",8980 µg/mL
same,solubility at 24 h,"[1]; Kollisolv GTA (oily excipient), 25 °C, oil or lipid, oily excipient Kollisolv GTA, 25 °C, read-out: APR solubility",3150 µg/mL
same,solubility at 24 h,"[1]; Kollisolv P124 (surfactant), 25 °C, aqueous with cosolvent or surfactant or cyclodextrin, surfactant Kollisolv P124, 25 °C, read-out: APR solubility",10700 µg/mL
same,solubility at 24 h,"[1]; Labrafac PG (oily excipient), 25 °C, oil or lipid, oily excipient Labrafac PG, 25 °C, read-out: APR solubility",427 µg/mL
same,solubility at 24 h,"[1]; Labrafac lipophile WL 1349 (oily excipient), 25 °C, oil or lipid, oily excipient Labrafac lipophile WL 1349, 25 °C, read-out: APR solubility",282 µg/mL
same,solubility at 24 h,"[1]; Labrafil M 1944 CS (surfactant), 25 °C, aqueous with cosolvent or surfactant or cyclodextrin, surfactant Labrafil M 1944 CS, 25 °C, read-out: APR solubility",3500 µg/mL
same,solubility at 24 h,"[1]; Labrafil M 2125 CS (surfactant), 25 °C, aqueous with cosolvent or surfactant or cyclodextrin, surfactant Labrafil M 2125 CS, 25 °C, read-out: APR solubility",2840 µg/mL
same,solubility at 24 h,"[1]; Labrasol (surfactant), 25 °C, aqueous with cosolvent or surfactant or cyclodextrin, surfactant Labrasol, 25 °C, read-out: APR solubility",15900 µg/mL
same,solubility at 24 h,"[1]; Lauroglycol 90 (cosurfactant), 25 °C, organic solvent or mixture, cosurfactant Lauroglycol 90, 25 °C, read-out: APR solubility",9320 µg/mL
same,solubility at 24 h,"[1]; Lauroglycol FCC (cosurfactant), 25 °C, organic solvent or mixture, cosurfactant Lauroglycol FCC, 25 °C, read-out: APR solubility",14200 µg/mL
same,solubility at 24 h,"[1]; Lemon oil (oily excipient), 25 °C, oil or lipid, oily excipient Lemon oil, 25 °C, read-out: APR solubility",3090 µg/mL
same,solubility at 24 h,"[1]; Maisine CC (oily excipient), 25 °C, oil or lipid, oily excipient Maisine CC, 25 °C, read-out: APR solubility",5360 µg/mL
same,solubility at 24 h,"[1]; Miglyol 812 (oily excipient), 25 °C, oil or lipid, oily excipient Miglyol 812, 25 °C, read-out: APR solubility",299 µg/mL
same,solubility at 24 h,"[1]; Miglyol 840 (oily excipient), 25 °C, oil or lipid, oily excipient Miglyol 840, 25 °C, read-out: APR solubility",1590 µg/mL
same,solubility at 24 h,"[1]; Oleic acid (oily excipient), 25 °C, oil or lipid, oily excipient Oleic acid, 25 °C, read-out: APR solubility",8480 µg/mL
same,solubility at 24 h,"[1]; Olive Yağı (oily excipient), 25 °C, oil or lipid, oily excipient Olive Yağı, 25 °C, read-out: APR solubility",181 µg/mL
same,solubility at 24 h,"[1]; PEG 200 (cosolvent), 25 °C, organic solvent or mixture, cosolvent PEG 200, 25 °C, read-out: APR solubility",11700 µg/mL
same,solubility at 24 h,"[1]; PEG 400 (cosolvent), 25 °C, organic solvent or mixture, cosolvent PEG 400, 25 °C, read-out: APR solubility",12000 µg/mL
same,solubility at 24 h,"[1]; Peceol (oily excipient), 25 °C, oil or lipid, oily excipient Peceol, 25 °C, read-out: APR solubility",7780 µg/mL
same,solubility at 24 h,"[1]; Peppermint oil (oily excipient), 25 °C, oil or lipid, oily excipient Peppermint oil, 25 °C, read-out: APR solubility",16600 µg/mL
same,solubility at 24 h,"[1]; Plurol Oleique CC 497 (cosurfactant), 25 °C, organic solvent or mixture, cosurfactant Plurol Oleique CC 497, 25 °C, read-out: APR solubility",4140 µg/mL
same,solubility at 24 h,"[1]; Propylene glycol (cosolvent), 25 °C, organic solvent or mixture, cosolvent Propylene glycol, 25 °C, read-out: APR solubility",8380 µg/mL
same,solubility at 24 h,"[1]; Sesame oil (oily excipient), 25 °C, oil or lipid, oily excipient Sesame oil, 25 °C, read-out: APR solubility",2230 µg/mL
same,solubility at 24 h,"[1]; Transcutol P (cosolvent), 25 °C, organic solvent or mixture, cosolvent Transcutol P, 25 °C, read-out: APR solubility",46500 µg/mL
same,solubility at 24 h,"[1]; Tween 20 (surfactant), 25 °C, aqueous with cosolvent or surfactant or cyclodextrin, surfactant Tween 20, 25 °C, read-out: APR solubility",7820 µg/mL
same,solubility at 24 h,"[1]; Tween 60 (surfactant), 25 °C, aqueous with cosolvent or surfactant or cyclodextrin, surfactant Tween 60, 25 °C, read-out: APR solubility",5040 µg/mL
same,solubility at 24 h,"[1]; Tween 80 (surfactant), 25 °C, aqueous with cosolvent or surfactant or cyclodextrin, surfactant Tween 80, 25 °C, read-out: APR solubility",2140 µg/mL
same,solubility at 24 h,"[1]; blank SNEDDS preconcentrate, 37 °C, organic solvent or mixture, Imwitor 988:Kolliphor RH40:Transcutol P (%) 10:30:60, 37 °C, read-out: APR solubility (loading capacity of SNEDDS preconcentrate)",43100 µg/mL
same,solubility at 24 h,"[1]; blank SNEDDS preconcentrate, 37 °C, organic solvent or mixture, Imwitor 988:Kolliphor RH40:Transcutol P (%) 10:40:50, 37 °C, read-out: APR solubility (loading capacity of SNEDDS preconcentrate)",34600 µg/mL
same,solubility at 24 h,"[1]; blank SNEDDS preconcentrate, 37 °C, organic solvent or mixture, Imwitor 988:Kolliphor RH40:Transcutol P (%) 10:50:40, 37 °C, read-out: APR solubility (loading capacity of SNEDDS preconcentrate)",26900 µg/mL
same,solubility at 24 h,"[1]; blank SNEDDS preconcentrate, 37 °C, organic solvent or mixture, Imwitor 988:Kolliphor RH40:Transcutol P (%) 10:60:30, 37 °C, read-out: APR solubility (loading capacity of SNEDDS preconcentrate)",22900 µg/mL
same,solubility at 24 h,"[1]; blank SNEDDS preconcentrate, 37 °C, organic solvent or mixture, Imwitor 988:Kolliphor RH40:Transcutol P (%) 10:70:20, 37 °C, read-out: APR solubility (loading capacity of SNEDDS preconcentrate)",18800 µg/mL
same,solubility at 24 h,"[1]; blank SNEDDS preconcentrate, 37 °C, organic solvent or mixture, Imwitor 988:Kolliphor RH40:Transcutol P (%) 10:80:10, 37 °C, read-out: APR solubility (loading capacity of SNEDDS preconcentrate)",15500 µg/mL
same,solubility at 24 h,"[1]; blank SNEDDS preconcentrate, 37 °C, organic solvent or mixture, Imwitor 988:Kolliphor RH40:Transcutol P (%) 20:10:70, 37 °C, read-out: APR solubility (loading capacity of SNEDDS preconcentrate)",51000 µg/mL
same,solubility at 24 h,"[1]; blank SNEDDS preconcentrate, 37 °C, organic solvent or mixture, Imwitor 988:Kolliphor RH40:Transcutol P (%) 20:40:40, 37 °C, read-out: APR solubility (loading capacity of SNEDDS preconcentrate)",29000 µg/mL
same,solubility at 24 h,"[1]; blank SNEDDS preconcentrate, 37 °C, organic solvent or mixture, Imwitor 988:Kolliphor RH40:Transcutol P (%) 20:50:30, 37 °C, read-out: APR solubility (loading capacity of SNEDDS preconcentrate)",23500 µg/mL
same,solubility at 24 h,"[1]; blank SNEDDS preconcentrate, 37 °C, organic solvent or mixture, Imwitor 988:Kolliphor RH40:Transcutol P (%) 20:70:10, 37 °C, read-out: APR solubility (loading capacity of SNEDDS preconcentrate)",15800 µg/mL
same,solubility at 24 h,"[1]; blank SNEDDS preconcentrate, 37 °C, organic solvent or mixture, Imwitor 988:Kolliphor RH40:Transcutol P (%) 30:20:50, 37 °C, read-out: APR solubility (loading capacity of SNEDDS preconcentrate)",45100 µg/mL
same,solubility at 24 h,"[1]; blank SNEDDS preconcentrate, 37 °C, organic solvent or mixture, Imwitor 988:Kolliphor RH40:Transcutol P (%) 30:60:10, 37 °C, read-out: APR solubility (loading capacity of SNEDDS preconcentrate)",17000 µg/mL
same,solubility at 24 h,"[1]; buffer pH 1.2, 37 °C, pH 1.2, simulated gastric fluid, buffer pH 1.2, 37 °C, 24 h, read-out: APR solubility",15.6 µg/mL
same,solubility at 24 h,"[1]; buffer pH 4.5, 37 °C, pH 4.5, aqueous buffer, buffer pH 4.5, 37 °C, 24 h, read-out: APR solubility",0.79 µg/mL
same,APR solubility,"[1]; buffer pH 6.8, 37 °C, 24 h",< LOD
same,APR solubility,"[1]; buffer pH 7.4, 37 °C, 24 h",< LOD
same,solubility in acetonitrile,[2]; acetonitrile,slightly soluble
same,logP,[2]; at neutral pH,4.8
same,permeability,[2],moderate
same,solubility in ethanol,[2]; ethanol,sparingly soluble
same,solubility in isopropyl acetate,[2]; isopropyl acetate,sparingly soluble
same,pKa,[2]; ref 5,9.7
same,Biopharmaceutical Classification System (BCS) class,[2]; ref 7,Class II
same,Biopharmaceutical Classification System (BCS) class,[2]; ref 8,Class IV
same,solubility in water,[2]; water,practically insoluble
same,mean oral bioavailability,[3]; 80 mg Emend capsule,67%
same,mean oral bioavailability,[3]; 125 mg Emend capsule,59%
same,time to maximum plasma concentration (Tmax),[3]; in vivo,4 h
same,time of mean peak plasma concentration,[3]; ref 14,approximately 4 h
